# From US20070208043A1, “Use of Serum Amyloid A Gene in Diagnosis and Treatment of Glaucoma and Identification of Anti-Glaucoma Agents” (ALCON, INC., priority 2003, published 2007)
# Entries after “also recorded” stand apart in the source; their conditions may differ. Read-outs that look alike come from different tables or passages of the source.
# B1: recombinant SAA: recombinant human Serum Amyloid A protein (protein, UniProt P0DJI8 19-122, looked up)
# Serum amyloid A-1 protein: RSFFSFLGEAFDGARDMWRAYSDMREANYIGSDKYFHARGNYDAAKRGPGGAWAAEVITDARENIQRFFGHGAEDSLADQAANEWGRSGKDPNHFRPAGLPEKY
# How the values were obtained:
# [1] = test system: SAA stimulated IL-8 secretion in HL-60 cells; assay: Inhibition of SAA stimulated IL-8 secretion in HL-60 cells (IL-8 in media by ELISA); assay type: cell-based; conditions: for Times more effective than SB203580: HL60 cells, inhibition curves; for IC50: Homo sapiens, read-out: Calculated IC50, inhibition of SAA stimulated IL-8 secretion
# Experimental: (§1) FIG. 12. […] NTM650-03, p9 or HL-60 cells were treated in serum-free DMEM for 4 hours with 1 μg/ml SAA and the indicated concentrations of SB202580. IL-8 was measured in the media by ELISA.
# FIG. 13. […] IL-8 was measured in the media by ELISA.
# (§2) One pathway for upregulation of IL-8 is through activation of MAP kinases.
# [2] = test system: Adv.SAA2-induced IOP in mouse; assay: Mouse IOP after intravitreal injection of Adv.SAA2 + anti-CD40L; topical p38 MAPK inhibitor; conditions: topical 1% b.i.d.
# Experimental: Contralateral eye of each animal was not injected. In addition to Adv, each animal received IP injection of anti-CD40L (0.5 mg/injection) on days −1, 0, 1, 2, 5, 9, & 14 to prolong the expression period of the Adv.SAA2. Mouse IOP was measured by Tonolab in a mask way. Mean of IOP for each eye was obtained from 18 to 30 measurements.
# [3] = test system: SAA induced IL-8 secretion in TM cells; assay: Inhibition of SAA induced IL-8 secretion in TM cells (IL-8 in media by ELISA); assay type: cell-based
# Experimental: FIG. 11. Effect of MAP p38 kinase inhibitors on induction of IL-8 by SAA treatment (1 μg/ml) in TM cells. […] IL-8 was measured in the media by ELISA.
# as §1, §2
# plasma SAA concentration = conditions: in vivo; cited from earlier work
# [4] = test system: perfused human anterior segments; assay: Perfusion cultured human eyes treated with recombinant SAA; conditions: 1 μg/mL, all five eyes
# Experimental: FIG. 9. Effect of recombinant human Serum Amyloid A (rhSAA, 1 μg/mL; treatment started at time 0) on IOP of perfused human anterior segments.
# FIG. 10. Effect of recombinant human Serum Amyloid A (rhSAA, 1 μg/mL; treatment started at time 0) on interleukin-8 (IL-8) level in the perfusate of perfused human anterior segments.
# Five pairs of human eyes were perfused with media containing either recombinant SAA (1 μg/mL) (experimental eye) or an equivalent volume of vehicle (control eye). At the end of the culture period, 4 quadrants of each eye were examined by transmission electron microscopy to determine TM tissue viability. Perfusate of each eye was collected and used for ELISA measurement of IL-8 level. […] The change in IOP correlated with SAA-induced increase in interleukin-8 in the perfusates. All five pairs of eyes had acceptable post-perfusion TM viability scores.
# HL-60 cells = assay: IL-8 secretion by HL-60 cells in response to rhSAA; assay type: cell-based; conditions: four hours, increasing concentrations
# Experimental: FIG. 5. IL-8 secretion by HL-60 cells in response to increasing concentrations of rhSAA.
# Cytokine-like properties of SAA include induction of IL-8 secretion by neutrophils. (Furlaneto and Campa, 2002; He et al. 2003). HL-60 cells, a promyelocytic cell line, was identified that responds to SAA with increased IL-8 secretion, and can be used for in vitro assays of SAA function. HL-60 cells were treated for four hours with increasing concentrations of recombinant human SAA, and IL-8 was measured in the media by ELISA. […] HL-60 cells can be used as a surrogate cell line for functional assays to identify agents that alter SAA function and expression levels.
# [5] = read-out: % Inhibition of SAA induced IL-8 secretion
# [6] = 10 μM, TM cells, read-out: % Inhibition of SAA induced IL-8 secretion
# [7] = 50 μM, TM cells, read-out: % Inhibition of SAA induced IL-8 secretion
# [8] = 1 μM, TM cells, read-out: % Inhibition of SAA induced IL-8 secretion
molecule,measurement,setting,value
"Fc1ccc(-c2c(-c3ccncc3)[nH]c3cccnc23)cc1 [4-azaindole, 3-(4-fluorophenyl)-2-(pyridin-4-yl)-1H-pyrrolo[3,2-b]pyridine]",Times more effective than SB203580,[1],approximately 10 times
same,IC50,"[1]; HL-60, 4 h",300 nM
same,Effect on IOP in the non-injected eyes,[2],did not affect IOP
same,Effect on Ad.SAA2-induced ocular hypertension (IOP),"[2]; days -1 to 7 and 13 to 17, Ad.SAA2 2×10^7 pfu/eye + antiCD40L",significantly inhibited; also recorded: blocked
same,Effect on iris hyperemia in the injected eyes,[2]; Ad.SAA2-injected eyes,did not affect hyperemia
same,Time to lower IOP to baseline after drug administration was resumed at day 13,[2]; Ad.SAA2-injected mouse eyes,3 days
same,Inhibition of SAA induced IL-8 expression (in words),[3]; TM cells,most potent
same,inhibition at 10 µM,[3]; [5],22.6%
same,inhibition at 50 µM,[3]; [5],94.3%
"Cc1ccc(-n2nc(C(C)(C)C)cc2NC(=O)Nc2ccc(OCCN3CCOCC3)c3ccccc23)cc1 [BIRB-796, 1-(5-tert-butyl-2-p-tolyl-2H-pyrazol-3-yl)-3(4-(2-morpholin-4-yl-ethoxy)naph-thalen-1-yl)urea]",Times more effective than SB203580,[1],approximately 10 times
same,IC50,"[1]; HL-60 cells, serum-free DMEM, 4 hours, 1 μg/ml SAA",500 nM
same,inhibition at 10 µM,[3]; [6],28.9%
same,inhibition at 50 µM,[3]; [7],78.1%
same,Inhibition of SAA induced IL-8 expression (in words),[3]; TM cells,most potent
"COc1cccc(-c2cc(=O)c3ccccc3o2)c1N [PD98059, 2′-amino-3′-methoxyflavone]",inhibition at 50 µM,[3]; [7],34%
"Oc1ccc(-c2nc(-c3ccc(F)cc3)c(-c3ccncc3)[nH]2)cc1 [SB202190, 4-[4-(4-fluorophenyl)-5-(4-pyridinyl)-1H-imidazol-2-yl]phenol]",inhibition at 1 µM,[3]; [8],17.2%
same,inhibition at 10 µM,[3]; [6],43.3%
same,inhibition at 50 µM,[3]; [7],38.2%
"C[S+]([O-])c1ccc(-c2nc(-c3ccc(F)cc3)c(-c3ccncc3)[nH]2)cc1 (stereo not shown) [SB203580, 4-(4-fluorophenyl)-2-(4-methylsulfinylphenyl)-5-(4-pyridyl)-1H-imidazole]",Inhibition of SAA induced IL-8 expression (in words),[3]; TM cells,most potent
same,inhibition at 1 µM,[3]; [5],16.3%
same,inhibition at 10 µM,[3]; [5],38.1%
same,inhibition at 25 µM,[3]; [5],61%
same,inhibition at 50 µM,[3]; [5],73.8%
same,inhibition at 100 µM,[3]; [5],98.7%
"N#CC(=C(/N)Sc1ccccc1N)/C(C#N)=C(/N)Sc1ccccc1N [U0126, 1,4-diamino-2,3-dicyano-1,4-bis(2-aminophynyltio)butadiene]",inhibition at 1 µM,[3]; [8],30.9%
same,inhibition at 10 µM,[3]; [6],50.6%
same,inhibition at 50 µM,[3]; [7],53%
"Cc1cccc(Nc2cc(Cl)nc(SCC(=O)O)n2)c1C [WY 14643, (4-chloro-6-(2,3-xylidino)-2-pryrimidinylthiol)-acetic acid]",Plasma SAA concentration,plasma SAA concentration,reduces
B1,IL-8 level in perfusate,[4],elevated IL-8 level
same,IOP of perfused human eyes,[4]; within 24 h of treatment,elevated IOP
same,IL-8 secretion,HL-60 cells,increased in a dose dependent manner
